Source: PubChem BioAssay (NCI)
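Protocol summary: plate cells (96-well), add compound at 5 concentrations, incubate 48 h, interpolate endpoints linearly. The concentration for full growth arrest is given as TGI.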

Columns and labels:
Assay in all cases: growth of human tumour cells (NCI), 48 h
TK-10 renal = tested on: TK-10 renal
SK-MEL-5 melanoma = tested on: SK-MEL-5 melanoma
U251 CNS = tested on: U251 CNS
SK-MEL-2 melanoma = tested on: SK-MEL-2 melanoma
MDA-N = tested on: MDA-N
786-0 renal = tested on: 786-0 renal
HOP-92 NSCLC = tested on: HOP-92 NSCLC
T-47D breast = tested on: T-47D breast
OVCAR-4 ovarian = tested on: OVCAR-4 ovarian
RXF 393 renal = tested on: RXF 393 renal
SF-268 CNS = tested on: SF-268 CNS
HL-60(TB) leukemia = tested on: HL-60(TB) leukemia
HCT-116 colon = tested on: HCT-116 colon
SR leukemia = tested on: SR leukemia
HS 578T breast = tested on: HS 578T breast
CCRF-CEM leukemia = tested on: CCRF-CEM leukemia
BT-549 breast = tested on: BT-549 breast
MOLT-4 leukemia = tested on: MOLT-4 leukemia
UACC-62 melanoma = tested on: UACC-62 melanoma
OVCAR-5 ovarian = tested on: OVCAR-5 ovarian
NCI-H460 lung = tested on: NCI-H460 lung
SF-539 CNS = tested on: SF-539 CNS
NCI-H226 lung = tested on: NCI-H226 lung
K-562 leukemia = tested on: K-562 leukemia
SNB-19 CNS = tested on: SNB-19 CNS
SW-620 colon = tested on: SW-620 colon
SF-295 CNS = tested on: SF-295 CNS
NCI-H23 lung = tested on: NCI-H23 lung
PC-3 prostate = tested on: PC-3 prostate
ACHN renal = tested on: ACHN renal
SK-MEL-28 melanoma = tested on: SK-MEL-28 melanoma
NCI/ADR-RES ovarian = tested on: NCI/ADR-RES ovarian
SK-OV-3 ovarian = tested on: SK-OV-3 ovarian
RPMI-8226 leukemia = tested on: RPMI-8226 leukemia
OVCAR-3 ovarian = tested on: OVCAR-3 ovarian
MDA-MB-231 breast = tested on: MDA-MB-231 breast
SN12C renal = tested on: SN12C renal
SNB-75 CNS = tested on: SNB-75 CNS
A549 NSCLC = tested on: A549 NSCLC
UO-31 renal = tested on: UO-31 renal
UACC-257 melanoma = tested on: UACC-257 melanoma
A498 renal = tested on: A498 renal
LOX IMVI melanoma = tested on: LOX IMVI melanoma
EKVX NSCLC = tested on: EKVX NSCLC
MALME-3M melanoma = tested on: MALME-3M melanoma
HOP-62 NSCLC = tested on: HOP-62 NSCLC
KM12 colon = tested on: KM12 colon
IGROV1 ovarian = tested on: IGROV1 ovarian
NCI-H522 lung = tested on: NCI-H522 lung
HT29 colon = tested on: HT29 colon
CAKI-1 renal = tested on: CAKI-1 renal
HCC-2998 colon = tested on: HCC-2998 colon
OVCAR-8 ovarian = tested on: OVCAR-8 ovarian
M14 melanoma = tested on: M14 melanoma
COLO 205 colon = tested on: COLO 205 colon
DU-145 prostate = tested on: DU-145 prostate
MDA-MB-435 = tested on: MDA-MB-435
MCF7 breast = tested on: MCF7 breast
HCT-15 colon = tested on: HCT-15 colon

Compound: CSc1c(C(=O)Nc2ccc(Cl)cc2)c(N)nn1-c1ccccc1
- TGI (TK-10 renal): > 100 µM
- TGI (SK-MEL-5 melanoma): > 100 µM
- TGI (U251 CNS): > 100 µM
- TGI (SK-MEL-2 melanoma): > 100 µM
- TGI (MDA-N): > 100 µM
- TGI (786-0 renal): > 43.2 µM
- TGI (HOP-92 NSCLC): > 100 µM
- TGI (T-47D breast): > 100 µM
- TGI (OVCAR-4 ovarian): > 23.8 µM
- TGI (RXF 393 renal): > 87.4 µM
- TGI (SF-268 CNS): > 100 µM
- TGI (HL-60(TB) leukemia): > 100 µM
- TGI (HCT-116 colon): > 100 µM
- TGI (SR leukemia): > 100 µM
- TGI (HS 578T breast): > 100 µM
- TGI (CCRF-CEM leukemia): > 100 µM
- TGI (BT-549 breast): > 100 µM
- TGI (MOLT-4 leukemia): > 100 µM
- TGI (UACC-62 melanoma): > 100 µM
- TGI (OVCAR-5 ovarian): > 100 µM
- TGI (NCI-H460 lung): > 100 µM
- TGI (SF-539 CNS): > 100 µM
- TGI (NCI-H226 lung): > 100 µM
- TGI (K-562 leukemia): > 100 µM
- TGI (SNB-19 CNS): > 100 µM
- TGI (SW-620 colon): > 100 µM
- TGI (SF-295 CNS): > 100 µM
- TGI (NCI-H23 lung): > 100 µM
- TGI (PC-3 prostate): > 100 µM
- TGI (ACHN renal): > 100 µM
- TGI (SK-MEL-28 melanoma): > 100 µM
- TGI (NCI/ADR-RES ovarian): > 100 µM
- TGI (SK-OV-3 ovarian): > 100 µM
- TGI (RPMI-8226 leukemia): > 100 µM
- TGI (OVCAR-3 ovarian): > 100 µM
- TGI (MDA-MB-231 breast): > 100 µM
- TGI (SN12C renal): > 100 µM
- TGI (SNB-75 CNS): > 86.3 µM
- TGI (A549 NSCLC): > 100 µM
- TGI (UO-31 renal): > 100 µM
- TGI (UACC-257 melanoma): > 100 µM
- TGI (A498 renal): > 100 µM
- TGI (LOX IMVI melanoma): > 100 µM
- TGI (EKVX NSCLC): > 100 µM
- TGI (MALME-3M melanoma): > 100 µM
- TGI (HOP-62 NSCLC): > 100 µM
- TGI (KM12 colon): > 100 µM
- TGI (IGROV1 ovarian): > 100 µM
- TGI (NCI-H522 lung): > 100 µM
- TGI (HT29 colon): > 100 µM
- TGI (CAKI-1 renal): > 100 µM
- TGI (HCC-2998 colon): > 100 µM
- TGI (OVCAR-8 ovarian): > 100 µM
- TGI (M14 melanoma): > 100 µM
- TGI (COLO 205 colon): > 100 µM
- TGI (DU-145 prostate): > 100 µM
- TGI (MDA-MB-435): > 100 µM
- TGI (MCF7 breast): > 100 µM
- TGI (HCT-15 colon): > 100 µM
